The structures appear in SMILES notation. Entries after “also recorded” stand apart in the source; their conditions may differ.

For data set [1] the following is noted: mouse, in vivo.
Experimental: Briefly, mice were anesthetized with a mixture of Ketamine/Xylazine (100 mg/kg, 10 mg/kg, respectively), after depth of anesthesia was confirmed by the cessation of reflexes, the incision area was properly shaved and sterilized with the aid of ethanol 70% swabs (Vitrex Medical A/S Herlev, DK), followed by iodine solution (Povidone Iodine 7.5% Henry Schein, Melville, NY, USA) applicated using cotton swabs. Before the onset of surgery, analgesics were applied, Lidocaine (0.05 ml, 0.2 mg/ml) was applied in the incision site and Buprenorphine (0.05 mg/kg) injected subcutaneously for post-surgical analgesia. After performing the skin incision around the occipital crest, the neck muscles were separated to reveal the CM underneath. […]
Immediately after the CM cannulation procedure, animals were moved to MRI scanner and head movement during scanning was minimized by restraining the animals on an MR-compatible stereotactic holder with ear bars. Body temperature was maintained at 37±0.5° C. with a thermostatically controlled waterbed and monitored, along with the respiratory rate by an MR compatible remote monitoring system (SA Instruments, NY, USA). […] Every 3D-CISS image was calculated as a maximum intensity projection from 4 realigned 3D-TrueFISP volumes with 4 orthogonal phase encoding directions (TR/TE 3.9/1.95 ms, Nex 2, FA 50°, FOV 19.2×12.8×12.8 mm, Matrix 192×128×128, BW 150 kHz). […]
Data set [2] in a line: CT live imaging of CSF tracer after intracisternal infusion, with dispersion model. The format is in vivo, mouse. As for the experimental part:
During the CM cannulation procedure a custom-made head bar was fixed on the top of the animal skull. The head bar was designed to minimize undesired movements during the image acquisition (Yoshida et al., 2016), and fixed to an animal holder. […] Animal's respiration was monitored by using Biovet software. CT scans were performed with the Vector4CT system (MILabs, Utrecht, Netherlands) and scanning of the entire mouse head was performed in 4.56 min at an isotropic spatial resolution of 20 μm. The time series CT scanning protocol comprised one baseline scan (4.5 min) followed by intracisternal infusion of Omnipaque (350 mg I/ml, 1 μL/min, 10 μL, GE healthcare). Scans continued over 6 measurements (30 min) after intracisternal infusion of Omnipaque.
The time-intensity data was extracted using ITK snap with the ROIs described above after background subtraction and then normalized to maximal cisterna magna intensity. Dimensions of cochlear aqueduct were measured using the #X feature in ITK snap for #four animals. Distances between ROIs were calculated using their spatial coordinates.
To solve the equation (#ref), inventors implemented a simple finite difference scheme in Python (#ref) using NumPy and Scipy (#ref). Estimation of the dispersion coefficient was achieved by minimizing the L2-norm prediction error, using Scipy (#ref) E: […]

Consider `O=C([O-])CN1CCN(CC(=O)[O-])CCN([C@H](CO)[C@H](O)CO)CCN(CC(=O)[O-])CC1.[Gd+3]` (racemic) [Gadovist, gadobutrol], for which, in data set [1], the “Time activity curves for tracer influx in mice lacking aqp4” value is given as “did not differ from wild type animals” and the “Time to reach 50 max” value is listed as “significantly higher in the cochlea”.

On to `CC(=O)N(CC(O)CO)c1c(I)c(C(=O)NCC(O)CO)c(I)c(C(=O)NCC(O)CO)c1I` (stereo not shown) [Omnipaque], for which the “Tracer concentration in scala vestibuli or cochlear nerve (CT)” value in data set [2] (during the 30 min of scanning) was “No clear rise; also recorded: no significant tracer arrives”. Also, the “Tracer dispersal into scala tympani (CT)” value in data set [2] (intracisternal delivery, 30 min of scanning) is “reaches the base and middle region of the scala tympani; also recorded: moves into the base of scala tympani”.

The values above are taken from patent US20250049957A1, “CSF TRANSPORT PATHWAY FOR DELIVERY OF AGENTS TO INNER EAR” (University of Rochester, priority 2021, published 2025).
